Here are results for three molecules from PMC5355877, “The development of novel LTA4H modulators to selectively target LTB4 generation” (Scientific Reports, 2017).

Several values for one entry are separate records, joined by “and”; a condition that tells them apart may be missing. Equal values may be shown once. Read-outs that look alike come from different tables or passages of the source.

Series [1] deals with T1, LTA4H epoxide hydrolase activity (LTB4 generation) (Mus musculus, UniProt P24527).
T1 construct: endogenous in cells; host or cells: murine bone marrow neutrophils
T1 sequence (P24527 1-611): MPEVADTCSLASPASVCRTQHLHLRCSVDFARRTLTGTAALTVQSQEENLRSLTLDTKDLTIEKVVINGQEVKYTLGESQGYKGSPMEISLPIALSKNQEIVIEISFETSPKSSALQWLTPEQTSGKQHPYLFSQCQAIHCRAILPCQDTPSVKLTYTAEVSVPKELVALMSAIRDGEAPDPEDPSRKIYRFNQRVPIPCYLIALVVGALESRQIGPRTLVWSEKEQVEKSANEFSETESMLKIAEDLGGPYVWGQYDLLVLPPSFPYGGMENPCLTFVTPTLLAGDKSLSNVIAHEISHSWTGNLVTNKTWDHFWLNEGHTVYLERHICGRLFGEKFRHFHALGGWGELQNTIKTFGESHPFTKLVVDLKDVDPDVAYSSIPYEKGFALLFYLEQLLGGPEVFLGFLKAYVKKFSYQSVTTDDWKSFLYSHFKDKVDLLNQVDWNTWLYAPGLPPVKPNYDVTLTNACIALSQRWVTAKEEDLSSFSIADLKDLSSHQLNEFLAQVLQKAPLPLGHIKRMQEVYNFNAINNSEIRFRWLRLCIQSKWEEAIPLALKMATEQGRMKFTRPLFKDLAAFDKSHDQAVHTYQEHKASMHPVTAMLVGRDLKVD
Briefly: LTA4H epoxide hydrolase activity: LTB4 generation by A23187-treated murine bone marrow neutrophils (EIA). Conditions: for IC50: LTB4 generation, murine neutrophils, read-out: Epoxide Hydrolase IC50 ± SEM. It is filed as cell-based. How it is done:
To isolate murine bone marrow neutrophils, the femur and the tibia from both hind legs were removed and freed of soft tissue attachments, and the extreme distal tip of each extremity cut off. HBSS containing 15 mM EDTA and 30 mM HEPES was forced through the bone with a syringe. After dispersing cell clumps and passage through a […] sieve (BD labware, New Jersey), red blood cells were lysed by resuspending pellets in ACK buffer (for 3 minutes at room temperature) before centrifugation (800 × g, 5 min) and washing with HBSS. The cell suspension was centrifuged (800 × g, 5 min, 4 °C) and resuspended in RPMI.
(§1) 1% DMSO was used as a control. Cells were incubated for 20 minutes at 37 °C, and the reaction was terminated by centrifugation (600 × g, 5 min, 4 °C). Supernatants were removed and stored at −80 °C for subsequent LTB4 analysis. The concentration of LTB4 generated in the epoxide hydrolase activity assay was assayed using an EIA, according to manufacturer’s directions (R&D systems, Minneapolis, MN). Test compounds were assayed in a blinded manner by an investigator during determination of effect on LTA4H epoxide hydrolase activity.

Series [2] deals with LTB4 production by neutrophils. The arrangement: method as in PMID 24591641. Conditions: cited from earlier work.
Another series has as its system LTA4H (PGP degradation). The arrangement: method as in PMID 24591641. Conditions: concentration of 100 μM; 5 μg/ml LTA4H; cited from earlier work.
Series [3] deals with T2, recombinant human LTA4H (aminopeptidase, PGP substrate) (Homo sapiens, UniProt P09960).
T2 construct: purchased Cayman Chemicals
T2 sequence (P09960 1-611): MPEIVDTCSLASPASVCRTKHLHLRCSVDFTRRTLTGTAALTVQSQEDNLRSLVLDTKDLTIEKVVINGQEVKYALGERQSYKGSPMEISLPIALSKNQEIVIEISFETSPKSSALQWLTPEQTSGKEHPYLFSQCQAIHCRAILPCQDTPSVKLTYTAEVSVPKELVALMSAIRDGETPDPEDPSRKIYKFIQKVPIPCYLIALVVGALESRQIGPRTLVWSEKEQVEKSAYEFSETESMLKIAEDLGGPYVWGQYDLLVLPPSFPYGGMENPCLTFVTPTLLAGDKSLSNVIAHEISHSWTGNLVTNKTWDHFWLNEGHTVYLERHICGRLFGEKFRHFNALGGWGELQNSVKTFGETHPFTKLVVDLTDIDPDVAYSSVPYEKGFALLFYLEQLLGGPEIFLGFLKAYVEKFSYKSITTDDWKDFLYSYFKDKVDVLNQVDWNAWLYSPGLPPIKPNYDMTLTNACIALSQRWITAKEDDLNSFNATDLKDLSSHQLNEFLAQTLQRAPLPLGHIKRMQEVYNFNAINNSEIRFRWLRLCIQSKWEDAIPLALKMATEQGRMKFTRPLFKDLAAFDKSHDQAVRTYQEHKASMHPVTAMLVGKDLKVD
In words: LTA4H aminopeptidase activity: PGP degradation by recombinant human LTA4H. Type of series: biochemical. How it is done:
For peptide quantification in serum, PGP and AcPGP were measured using a MDS Sciex API-4000 spectrometer (Applied Biosystems, Foster City, CA) equipped with a Shimadzu HPLC (Columbia, MD). For peptide quantification from degradation experiments, PGP and AcPGP were measured using a Thermo Accela Pump and Autosampler coupled to a Thermo TSQ Quantum Access. […] Peak area was measured, and PGP/AcPGP peptide concentrations were calculated using a relative standard curve method as previously described.
Mouse serum (diluted 1/10 in PBS) or recombinant human LTA4H (0.1 μg/ml; Cayman Chemicals, Michigan, USA) were incubated with 0.4 mM PGP at 37 °C in 5% CO2 for varying periods of time. Concentrations of PGP remaining were subsequently quantified by ESI-LC/MS/MS (as discussed above) by comparison with PGP standards. The percentage of peptide degraded was determined relative to control samples of 0.4 mM PGP alone. PGP degradation was also assessed by measurement of free proline released and its ensuing reaction with Ninhydrin (as discussed below). Test compounds were assayed in a blinded manner by an investigator during determination of the effect on LTA4H aminopeptidase activity.
To assess free proline liberated, aliquots from PGP degradation experiments were diluted 1 in 10 in PBS (to a final volume of 250 μl). Glacial acetic acid (250 μl) was then added, followed by 250 μl of ninhydrin solution (25 mg/ml in acetic acid/6 M phosphoric acid; heated at 70 °C to dissolve). The reaction mixture was heated at 100 °C for 60 minutes, allowed to cool to room temperature and the proline containing fraction extracted with 500 μl of toluene and optical density measured at 520 nm.

A short description of series [4]: Human liver microsome stability. The conditions noted are these: liver microsomes. Type of series: in vitro ADME. The text has this:
(§2) ARM1 (4-(4-benzylphenyl)-1,3-thiazole-2-amine), compound 11 (7-hydroxy-3-(4-hydroxyphenyl)-4H-chromen-4-one) and compound 13 (7-hydroxy-3-phenyl-4H-chromen-4-one) were all purchased from VitasMLab (Kowloon, Hong Kong). […] All other compounds were custom synthesized by Peakdale Molecular as described in Supplementary Information. ADMET (absorption, distribution, metabolism, and excretion – toxicity) studies were also outsourced to Peakdale Molecular.
(Microsomes from liver hold many membrane-bound enzymes, among them those of drug oxidation.)

Series [5] can be described thus: Human plasma protein binding. It is filed as in vitro ADME.
Description: as §2

Another series is described as follows: logD pH7.4. The conditions noted are these: pH 7.4; read-out: logDpH7.4. Type of series: physicochemical.
Description: as §2

A short description of series [6]: Mouse liver microsome stability. It is filed as in vitro ADME. Conditions: liver microsomes.
Description: as §2

A short description of series [7]: Mouse plasma protein binding. It is filed as in vitro ADME.
Description: as §2

Series [8] addresses T3, LTA4H epoxide hydrolase activity (LTB4 generation) (Homo sapiens, UniProt P09960).
T3 construct: endogenous in cells; host or cells: human peripheral blood neutrophils from healthy volunteers
T3 sequence (P09960 1-611): T2 sequence (P09960 1-611)
Briefly: LTB4 generation by human blood-derived neutrophils. Type of series: cell-based. Conditions: preliminary data, blood-derived neutrophils from two distinct donors. Here is the method: To isolate human neutrophils, peripheral blood was taken from healthy volunteers following informed consent and according to an approved protocol. Neutrophils were subsequently isolated using the MACSxpress™ Neutrophil Isolation Kit (Miltenyi Biotec, UK).
as §1, with “1 × 10^5 murine bone marrow-derived neutrophils or human blood-derived neutrophils (compound 9 only) in 100 μl of RPMI were treated with A23187 at a final concentration of 20 μg/ml. 1%” for “1%”

Details of series [9]: method as in PMID 12540402. Conditions: metabolic stability reported; cited from earlier work.

As usually defined, the IC50 is the midpoint of a concentration-inhibition curve. On to `Nc1nc(-c2ccc(Cc3ccccc3)cc2)cs1` [ARM1, 4-(4-benzylphenyl)-1,3-thiazole-2-amine, reference compound], for which the concentration for half-maximal inhibition (IC50) in series [1] (Table 1) was 600 ± 66.2 nM; in series [2], 500 nM and ~500 nM; in series [3] (PGP degradation, recombinant LTA4H, Table 1, read-out: Aminopeptidase IC50 ± SEM) it was 9110 nM; in series [3] (read-out: IC50 for inhibiting PGP degradation) it was about 9100 nM. In the series on LTA4H (PGP degradation), the “inhibition of PGP degradation at 100 μM” value is “no inhibition”.

What is called microsomal CLint is the capacity of the preparation to metabolise the compound, expressed as a volume cleared per time. Low readings indicate slow turnover, high ones rapid turnover. The term fraction unbound denotes the share of the substance not bound to proteins or other matrix. A high value points to much free substance. For `COc1cc(O)cc(CCc2ccccc2O)c1` [Compound 9], the values for the microsomal CLint in series [4] and in series [6] were 59.5 µL/min/mg and 466 ± 100 µL/min/mg, respectively. The half-life in series [4] (read-out: Human liver microsomes t1/2) is 11.7 min; in series [6] (read-out: Mouse liver microsomes t1/2) it was 1.5 min. Moreover, the results for the fraction unbound in [5] and in series [7] were 0.0225 and 0.0213, respectively. The logD in the series “logD pH7.4” was found to be 2.25 ± 0.1. For the same molecule, the IC50 in series [1] (Table 2) is 500 ± 40 nM; in [3] (PGP degradation, Table 2, read-out: Aminopeptidase IC50 ± SEM), over 100000 nM; in series [8] it was 2400 nM. In addition, the “augmentation of LTB4 inhibitory capacity” value in [1] (relocation of hydroxyl to R3-position, relative to compound 6) is listed as 10 fold. In addition, in [3] (concentration of 100 μM), the “inhibition of PGP degradation at 100 μM” value is listed as “no inhibition”.

Turning to `O=c1c(-c2ccc(O)cc2)coc2cc(O)ccc12` [Compound 11, 7-hydroxy-3-(4-hydroxyphenyl)-4H-chromen-4-one], the IC50 in series [1] (Table 3) is 15000 ± 2300 nM; in [3] (PGP degradation, Table 3, read-out: Aminopeptidase IC50 ± SEM), over 100000 nM. In addition, the t1/2 in series [9] is 465 ± 21.6 min.
